In US20250000864A1, “GONADOTROPIN-RELEASING HORMONE ANTAGONIST, AND PREPARATION METHOD THEREFOR AND USE THEREOF” (SHANDONG LUYE PHARMACEUTICAL CO., LTD., priority 2021, published 2025):
Read-outs that look alike come from different tables or passages of the source.

Columns and labels:
[1] = molecular target: human GnRHR (Homo sapiens (Human), UniProt P30968); assay: In vitro antagonistic activity screening (FLIPR calcium fluorescence, Leuprolide acetate stimulation); type: cell-based; details: HEK293 cells stably expressing human GnRHR
Procedure: Cell: HEK293 cells stably expressing human GnRHR (WuXi AppTec (Shanghai) Co., Ltd.) Equipment: 384-well plate, Greiner; Vi-cell XR Cell Viability Analyzer, Beckman Coulter; incubator, Thermo.
Method: HEK293 cells stably expressing human GnRHR were seeded into a 384-well plate at a density of 20,000/well. Fluo-4 Direct™ No-wash Loading Buffer (Invitrogen) was added to each well the next day, and then the plate was put back into an incubator, incubated at 37° C. for 50 min, and then incubated at room temperature for 10 min. Test compounds were formulated in DMSO. […] Fluorescence values were determined using a FLIPR Tetra high throughput real-time fluorescence detection and assay system. Then 10 μL of Leuprolide acetate was added, and fluorescence values were determined. IC50 and IC90 of the compounds were calculated using Prism.

[2] = molecular target: human hERG potassium channel (Homo sapiens (Human), UniProt Q12809); assay: hERG test (QPatch automated patch clamp, CHO cells); type: cell-based
Procedure: Cell: CHO cells stably expressing a human hERG potassium channel (WuXi AppTec (Shanghai) Co., Ltd.) Reagent: physiological solution (pH=7.4): 140 mM NaCl, 4 mM KCl, 2 mM CaCl2), 1 mM MgCl2, 5 mM Glucose, 10 mM HEPES, Osmolarity: about 298 mOsm; external solution (pH=7.4): 80 mM NaCl, 4 mM KCl, 2 mM CaCl2), 1 mM MgCl2, 5 mM Glucose, 60 mM NMDG, 10 mM HEPES, Osmolarity: about 289 mOsm; internal solution (pH=7.4): 10 mM NaCl, 10 mM KCl, 110 mM KF, 10 mM HEPES, EGTA: […], Osmolarity: about 280 mOsm.
Equipment: QPatch high-throughput automated patch clamp system, Sophion.
Method: CHO cells stably expressing a human hERG potassium channel were digested with TrypLE and resuspended in a physiological solution for later use. The single-cell high-impedance sealing and whole-cell mode formation processes were automatically completed by Qpatch. The clamping voltage for the cells was −80 mV. Then a voltage of −50 mV was applied for 80 ms to subtract (current) leakage, and a voltage of +20 mV was applied for 4800 ms to open the hERG channel. The voltage was then reduced to −50 mV and maintained for 5000 ms. This process was used for data collection and analysis. Finally, the voltage was returned to the clamping voltage (−80 mV, 1000 ms). This process was repeated every 20,000 ms. 40 μL of solvent control (external solution+DMSO) was added first, and the test was performed for […] to collect baseline data. Then, 40 μL of each of the test compounds was added at various concentrations, and the test was performed for no less than […]. The compounds were each dissolved in DMSO, with test concentrations being 0.30 μM, 1.00 μM, 3.00 μM, 10.00 μM, and 30.00 μM. The IC50 data for the hERG test were obtained by analyzing using DataControl, Excel2013, and Prism.

[3] = Metabolic stability in rat liver microsomes; type: in vitro ADME, SD rat; details: for Residual content at 60 min / CLint scaled / half-life / microsomal CLint / CLint(liver): Rat liver microsomes; for Residual content at 60 min: NADPH, 37° C.; for CLint scaled / half-life / microsomal CLint: Sprague-Dawley (SD); for microsomal CLint: read-out: CLint(mic)
Procedure: (§1) Liver Microsome: Rat Liver Microsome and Human Liver Microsome Reagent: NADPH, Roche Diagnostics Gmbh; ACN, Merck Chemical; Tolbutamide, Sigma. Instrument: water purification equipment, Millipore; electronic balance, METTLER TOLEDO; high-speed benchtop centrifuge, Thermo; water bath thermostatic oscillator, Shanghai Yiheng Technical Co., Ltd.; vortex oscillator, Thermo; LC-MS/MS, AB SCIEX. Method: the metabolic stability of test substances was evaluated by using SD rat and human liver microsomes. The test substances were incubated with liver microsomes from different species by using NADPH under a water bath at 37° C. A cold acetonitrile solution containing a Tolbutamide internal standard substance was added at a specified time point to terminate the reaction. The samples were pre-treated and then subjected to semi-quantitative analysis by LC-MS/MS. The retention times of the analytes and Tolbutamide internal standard, the acquisition of chromatograms, and the integration of chromatograms were processed using software Analyst (A Sciex, Framingham, Massachusetts, USA). The in vitro elimination rate constant Ke of the samples was obtained by converting the ratio of the peak area of the samples to the peak area of the internal standard into the residual percentage, and the in vitro clearance rate and the half-life of the test samples were calculated.

[4] = Metabolic stability in human liver microsomes; type: in vitro ADME; details: for Residual content at 60 min: NADPH, 37° C.; for microsomal CLint: read-out: CLint(mic)
Procedure: as §1

[5] = Caco-2 two-way permeability and efflux; type: in vitro ADME; details: human; for Papp A→B at 120 min / Papp B→A at 120 min: Caco-2, 120 min incubation
Procedure: Instrument: water purification equipment, ELGA LabWate; biosafety cabinet, NUAIRE; thermostatic CO2 incubator, Thermo; microplate reader, PerkinElmer; LC-MS/MS, AB SCIEX.
Method: A Caco-2 monolayer cell model was used to determine the two-way permeability of the test substances and evaluate whether the test substances were transported by the efflux of a transporter. In the experiment, Caco-2 cells were seeded into a 96-well cell culture plate and cultured for 28 consecutive days for transport assay. The test substances were each administered on two sides. After being incubated for 120 min, the samples at the apical end A, at the basal end B, and with cell lysis were collected and quantitatively determined for the content of the test substances by using a liquid chromatography-tandem mass spectrometry (LC/MS/MS) method. The apparent permeability coefficient (Papp) in the direction from the apical end to the basal end (A-B) and in the direction from the basal end to the apical end (B-A) and the efflux ratio were calculated from the concentrations of the test substances.

[6] = Pharmacokinetics in SD rats (i.v. and i.g.); type: in vivo; details: for bioavailability: read-out: F (absolute bioavailability)
Procedure: Instrument: water purification equipment, Millipore; electronic balance, METTLER TOLEDO; high-speed benchtop centrifuge, Thermo; water bath thermostatic oscillator, Shanghai Yiheng Technical Co., Ltd.; vortex oscillator, Thermo; LC-MS/MS, AB SCIEX.
Method: all compounds were formulated in DMSO and 20% solutol. In the pharmacokinetic experiment, the administration dose for the intravenous group (i.v) was 1 mg/kg, and the administration dose for the intragastric group (i.g) was 12 mg/kg, each group containing 3 rats. Blood was collected from the orbit of the rats before (0 h) the administration and at set time points after administration. In the tissue distribution experiment, the rats were subjected to intragastric administration at a dose of 12 mg/kg. […] The […] in a heparinized EP tube and centrifuged at 13,500 rpm for 10 min to isolate the plasma. The pituitary was homogenized with water in a certain proportion. The plasma and pituitary homogenates were pre-treated and then analyzed by LC-MS/MS to determine the concentration of the test substances in the plasma and the pituitary. The plasma drug concentration data were processed in a non-compartmental model using WinNonlin™ Version 6.3 (Pharsight, Mountain View, CA) pharmacokinetic software.

[7] = male, Sprague-Dawley (SD), rat, plasma, iv, i.v 1 mg/kg
[8] = male, Sprague-Dawley (SD), rat, plasma, po, i.g 12 mg/kg
[9] = male, Sprague-Dawley (SD), rat, plasma, po, i.g 12 mg/kg vs i.v 1 mg/kg
[10] = male, rat, plasma, intravenous, i.v 1 mg/kg
[11] = male, rat, plasma, oral, i.g 12 mg/kg

Sequence of human hERG potassium channel (Q12809 whole entry): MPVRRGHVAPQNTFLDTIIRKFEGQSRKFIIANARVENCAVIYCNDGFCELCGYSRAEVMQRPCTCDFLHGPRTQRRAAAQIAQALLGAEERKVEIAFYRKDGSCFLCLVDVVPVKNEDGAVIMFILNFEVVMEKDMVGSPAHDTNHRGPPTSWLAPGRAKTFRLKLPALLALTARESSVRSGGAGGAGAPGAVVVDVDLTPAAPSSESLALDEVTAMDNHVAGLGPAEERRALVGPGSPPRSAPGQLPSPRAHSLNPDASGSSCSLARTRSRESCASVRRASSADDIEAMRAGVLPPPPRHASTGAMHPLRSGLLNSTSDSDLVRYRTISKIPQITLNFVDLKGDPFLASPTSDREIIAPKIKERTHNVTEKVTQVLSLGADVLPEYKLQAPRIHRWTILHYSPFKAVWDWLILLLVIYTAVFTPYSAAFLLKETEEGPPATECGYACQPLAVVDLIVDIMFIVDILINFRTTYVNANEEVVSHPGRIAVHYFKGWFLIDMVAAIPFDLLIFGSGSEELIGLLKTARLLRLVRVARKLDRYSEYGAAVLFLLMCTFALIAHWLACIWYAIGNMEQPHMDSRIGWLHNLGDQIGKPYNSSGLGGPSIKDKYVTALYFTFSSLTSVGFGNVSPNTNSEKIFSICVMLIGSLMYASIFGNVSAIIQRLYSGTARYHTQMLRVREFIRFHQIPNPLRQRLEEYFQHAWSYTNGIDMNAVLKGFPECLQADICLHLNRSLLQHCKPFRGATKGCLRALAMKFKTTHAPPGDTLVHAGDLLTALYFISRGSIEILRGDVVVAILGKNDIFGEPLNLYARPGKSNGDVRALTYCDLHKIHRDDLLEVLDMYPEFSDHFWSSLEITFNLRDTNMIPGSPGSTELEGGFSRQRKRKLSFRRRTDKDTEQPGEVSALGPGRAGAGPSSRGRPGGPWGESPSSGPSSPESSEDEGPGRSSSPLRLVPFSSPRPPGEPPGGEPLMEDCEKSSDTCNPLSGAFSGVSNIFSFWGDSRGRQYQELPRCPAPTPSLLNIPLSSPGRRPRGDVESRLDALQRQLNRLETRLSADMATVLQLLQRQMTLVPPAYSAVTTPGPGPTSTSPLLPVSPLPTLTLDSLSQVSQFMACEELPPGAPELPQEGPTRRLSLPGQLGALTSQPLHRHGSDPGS
Sequence of human GnRHR (P30968 whole entry): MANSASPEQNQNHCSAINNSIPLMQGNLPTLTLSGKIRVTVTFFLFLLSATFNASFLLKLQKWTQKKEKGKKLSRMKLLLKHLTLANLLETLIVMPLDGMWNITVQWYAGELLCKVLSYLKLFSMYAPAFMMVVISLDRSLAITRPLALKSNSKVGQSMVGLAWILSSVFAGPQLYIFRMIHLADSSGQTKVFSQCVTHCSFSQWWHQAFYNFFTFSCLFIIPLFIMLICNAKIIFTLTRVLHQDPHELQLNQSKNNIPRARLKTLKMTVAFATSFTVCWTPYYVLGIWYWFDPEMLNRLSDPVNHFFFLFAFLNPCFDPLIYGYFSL

Row | SMILES | Residual content at 60 min [3] | CLint scaled [3] | half-life [3] | microsomal CLint [3] | CLint scaled [4] | half-life [4] | Residual content at 60 min [4] | microsomal CLint [4] | Papp A→B at 120 min [5] | Papp B→A at 120 min [5] | further results
1 | CONC(=O)Nc1ccc(-c2oc3c(c2CN(C)C)c(=O)n(-c2ccc(OC)nn2)c(=O)n3Cc2c(F)cccc2F)cc1 [Compound 4] | 89.9% | < 13.5 mL/min/kg | > 3.1 h | < 7.5 µL/min/mg | < 6.75 mL/min/kg | > 3.1 h | 104% | < 7.5 µL/min/mg | 0.0933 ×10⁻⁶ cm/s | 29.4 ×10⁻⁶ cm/s | IC50 ([1]; read-out: Functional IC50): 12 nM; IC90 ([1]; read-out: Functional IC90): 92.3 nM; IC50 ([2]; CHO cells stably expressing human hERG potassium channel): 4440 nM; Inhibitory activity on the human hERG potassium channel compared with Relugolix ([2]; in words, vs Relugolix): equal to or less than that of Relugolix; Clearance in the SD rat liver microsome (in words) ([3]; SD rat liver microsome): low clearance; efflux ratio at 120 min ([5]; Caco-2, read-out: Efflux ratio): 316
2 | CONC(=O)Nc1ccc(-c2sc3c(c2CN(C)C)c(=O)n(-c2cccc(OC(F)F)c2F)c(=O)n3Cc2c(F)cccc2F)cc1 [Compound 3] | 34.5% | 62.6 mL/min/kg | 0.663 h | 34.8 µL/min/mg | 17.5 mL/min/kg | 1.19 h | 55.5% | 19.4 µL/min/mg | 0.126 ×10⁻⁶ cm/s | 18 ×10⁻⁶ cm/s | AUC(0-t) [6, 7]: 271 ± 49 ng·h/mL; C0 [6, 7]: 198 ± 4 ng/mL; MRT last [6, 7]: 3.83 ± 0.63 h; half-life [6, 7]: 4.34 ± 1 h; AUC(0-t) [6, 8]: 596 ± 231 ng·h/mL; Cmax [6, 8]: 82.7 ± 10.1 ng/mL; MRT last [6, 8]: 7.3 ± 1.13 h; half-life [6, 8]: 4.11 h; bioavailability [6, 9]: 18.3%; Tmax ([6]; male, Sprague-Dawley (SD), rat, plasma, po, i.g 12 mg/kg, read-out: Tmax): 6 ± 2.83 h
3 | CONC(=O)Nc1ccc(-c2sc3c(c2CN(C)CCOC(F)(F)F)c(=O)n(-c2ccc(OC)nn2)c(=O)n3Cc2c(F)cccc2F)cc1 [Compound 1] | – | – | – | – | – | – | – | – | – | – | T1/2 ([6]; i.g 12 mg/kg): 4.86 ± 3.05 h; Tmax ([6]; i.g 12 mg/kg): 1.13 ± 0.63 h; F (absolute bioavailability) ([6]; i.g 12 mg/kg vs i.v 1 mg/kg): 44.7%; T1/2 ([6]; i.v 1 mg/kg): 2.79 ± 0.87 h; AUC(0-t) [6, 10]: 992 ± 226 ng·h/mL; C0 [6, 10]: 2830 ± 454 ng/mL; MRT last [6, 10]: 0.539 ± 0.041 h; AUC(0-t) [6, 11]: 5320 ± 1210 ng·h/mL; Cmax [6, 11]: 664 ± 123 ng/mL; MRT last [6, 11]: 6.02 ± 0.93 h

More lines, main results first:

Row | Residual content at 60 min [3] | CLint scaled [3] | half-life [3] | microsomal CLint [3] | CLint scaled [4] | half-life [4] | Residual content at 60 min [4] | microsomal CLint [4] | Papp A→B at 120 min [5] | Papp B→A at 120 min [5] | SMILES | further results
4 | 98.7% | < 13.5 mL/min/kg | > 3.1 h | < 7.5 µL/min/mg | < 6.75 mL/min/kg | > 3.1 h | 89.0% | < 7.5 µL/min/mg | 0.011 ×10⁻⁶ cm/s | 4.58 ×10⁻⁶ cm/s | CONC(=O)Nc1ccc(-c2sc3c(c2CN(C)C)c(=O)n(-c2ccc(OC)nn2)c(=O)n3Cc2c(F)cccc2C(F)(F)F)cc1 [Compound 5] | –
5 | 58.0% | – | 1.41 h | 16.4 µL/min/mg | – | 3.98 h | 86.4% | 5.8 µL/min/mg | 0.00716 ×10⁻⁶ cm/s | 13.8 ×10⁻⁶ cm/s | CONC(=O)Nc1ccc(-c2sc3c(c2CN(C)C)c(=O)n(-c2ccc(OC)nn2)c(=O)n3Cc2c(F)cccc2F)cc1 [Relugolix, reference compound] | CLint(liver) [3]: 29.5 mL/min/kg; CLint(liver) [4]: 5.22 mL/min/kg; T1/2 ([6]; i.g 12 mg/kg): 3.88 ± 0.57 h; bioavailability [6, 9]: 5.74%
6 | 47.0% | – | 0.917 h | 25.2 µL/min/mg | – | 2.82 h | 75.5% | 8.2 µL/min/mg | 0.0101 ×10⁻⁶ cm/s | 15.6 ×10⁻⁶ cm/s | COc1ccc(-n2c(=O)c3c(CN(C)C)c(-c4ccc(NC(=O)NOCC(F)F)cc4)sc3n(Cc3c(F)cccc3F)c2=O)nn1 [Compound 7] | CLint(liver) [3]: 45.4 mL/min/kg; CLint(liver) [4]: 7.38 mL/min/kg
7 | 57.1% | 34.9 mL/min/kg | 1.19 h | 19.4 µL/min/mg | < 6.75 mL/min/kg | > 3.1 h | 95.9% | < 7.5 µL/min/mg | 0.0504 ×10⁻⁶ cm/s | 0.504 ×10⁻⁶ cm/s | CNc1ccc(-n2c(=O)c3c(CN(C)C)c(-c4ccc(NC(=O)NOC)cc4)sc3n(Cc3c(F)cccc3F)c2=O)nn1 [Compound 6] | –
